Results as given in patent US9925231B2, “Formulations of guanylate cyclase C agonists and methods of use” (SYNERGY PHARMACEUTICALS, INC., priority 2010, dated 2018).
Where a SMILES comes first, the peptide text is derived from it. Bridges are numbered along the chain shown (N, C = ends).

Assays:
[1] = Clinical study in CIC patients: pharmacokinetic profile of SP-304 in plasma; type: in vivo, Humans; conditions: oral, 14 days, assay sensitivity ≥10 ng/mL
Procedure: (§1) A randomized, double-blind, placebo-controlled, 14-day repeat oral, dose ranging study was conducted in patients with chronic idiopathic constipation (CIC). […] One secondary objective was to assess the pharmacokinetic profile of SP-304 in plasma.
(§2) Subjects diagnosed with CIC were screened for the anticipated 4 cohorts to yield 80 randomized subjects for enrollment. […] Subjects who continued to meet all the entry criteria and complete the pre-treatment bowel movement (BM) diary received, in a double-blind, randomized fashion, SP-304 or matching placebo. The entry criteria included (1) meeting modified ROME III criteria for chronic constipation (CC); (2) no significant finding in colonoscopy within past 5 years; (3) good health as determined by physical examination, medical history, vital signs, ECG, clinical chemistry, hematology, urinalysis, drug screen and serology assessments; and (4) during 14-day pre-treatment period, subjects reporting <6 SBM and <3 CSBM in each pre-treatment week.
(§3) The majority of adverse events were mild/moderate and transient in nature. […] The table below is a GI-related adverse event (AE) summary.

[2] = Excipient compatibility: percent purity (HPLC) of SP-304 in binary mixtures stored at 40 C/75RH; type: physicochemical
Description: For solid excipients the binary mixtures were comprised of 9.1% or 50% excipient. Glass vials were stored at 40 C/75RH open or closed.

[3] = system: patients with chronic idiopathic constipation (CIC); test: Clinical study in CIC patients: pharmacodynamic effects (efficacy), bowel habits; type: in vivo, Humans; conditions: for time to first bowel movement: after daily dose
Procedure: as §1, §2

[4] = system: patients with chronic idiopathic constipation (CIC); type: in vivo
Procedure: as §1, §2, §3

[5] = daily treatment 14 days, CIC patients
[6] = 14-day repeat oral dosing, CIC patients

Compound: CC(C)C[C@H](NC(=O)[C@@H]1CSSC[C@@H]2NC(=O)[C@H](CC(C)C)NC(=O)[C@H](CCC(=O)O)NC(=O)[C@@H](NC(=O)[C@H](CCC(=O)O)NC(=O)[C@H](CC(=O)O)NC(=O)[C@@H](N)CC(N)=O)CSSC[C@H](NC(=O)[C@H](C)NC(=O)[C@H](C(C)C)NC(=O)[C@H](CC(N)=O)NC(=O)[C@H](C(C)C)NC2=O)C(=O)N[C@@H]([C@@H](C)O)C(=O)NCC(=O)N1)C(=O)O [SP-304, Asn^1-Asp^2-Glu^3-Cys^4-Glu^5-Leu^6-Cys^7-Val^8-Asn^9-Val^10-Ala^11-Cys^12-Thr^13-Gly^14-Cys^15-Leu^16] (H-NDECELCVNVACTGCL-OH; disulfide 4-12, 7-15)
- systemic absorption of plecanatide [1]: no detectable systemic absorption
- percent purity of SP-304 (HPLC), Closed 1 M ([2]; closed glass vial, 1 month): 91.4%
- percent purity of SP-304 (HPLC), Closed 2 M ([2]; closed glass vial, 2 months): 88.2%
- percent purity of SP-304 (HPLC), Open 0.5 M ([2]; open glass vial, 0.5 month): 93.7%
- percent purity of SP-304 (HPLC), Open 1 M ([2]; open glass vial, 1 month): 91.2%
- percent purity of SP-304 (HPLC), Open 2 M ([2]; open glass vial, 2 months): 88.2%
- percent purity of SP-304 (HPLC), Open 3 M ([2]; open glass vial, 3 months): 84.8%
- stool consistency ([3]; Bristol Stool Form Scale, daily treatment 14 days): improved
- time to first bowel movement ([3]; CIC patients): decreased
- time to first bowel movement ([3]; CIC patients, listed as Plecanatide): reduced
- abdominal discomfort [3, 5]: reduced
- stool frequency (CSBM) [3, 5]: increased
- stool frequency (SBM) [3, 5]: increased
- straining [3, 5]: reduced
- deaths [4, 6]: no deaths reported
- serious adverse events (SAE) [4, 6]: No serious adverse events
- diarrhea ([4]; human, in vivo): no diarrhea reported
- subjects reporting GI-related adverse events considered as related to treatment ([4]; human, in vivo): 5.2%
- subjects reporting adverse events considered as related to the treatment ([4]; human, in vivo): 17.2%
